According to article PMC10257182, “Discovery of senolytics using machine learning” (Nature Communications, 2023):
Where “and” joins values, the source holds several entries; their conditions need not be identical. Equal values may be shown once. Read-outs that look alike come from different tables or passages of the source.

Key:
Type in all cases: cell-based, human
[1] = tested on: caspase 3/7 activity in senescent IMR90 ER:RAS cells; assay: Caspase 3/7 activity assay; parameters: Caspase 3/7 activity time course (SUP FIG 9F) / Caspase 3/7 activity time course (SUP FIG 9F exp not shown): unit not given here; details: for Caspase 3/7 activity time course (SUP FIG 9F) / Caspase 3/7 activity time course (SUP FIG 9F exp not shown): ER:RAS cells; for Caspase 3/7 activity time course (SUP FIG 9F exp not shown): second experiment, data not shown; for Casp3/7 activity (percentage of green fluorescent cells): ER:RAS, 100 nM 4OHT, 10 nM compound, 35 h
Procedure: IMR90 ER:STOP and IMR90 ER:RAS cells were cultured with 100 nM 4-OHT for 5 days. Cell were then plated in a multiwell plate at high density. Once cells were attached, Caspase 3/7 probe (C10423 Invitrogen) and senolytic drugs, oleandrin, ouabain and periplocin at 10 nM, were added to the media and cultured for 36 h. Time lapse imaging was recorded every hour on a Leica AF6500 microscope (10x). ImageJ 1.53k was used for positive cell counting.

[2] = tested on: Na+/K+ ATPase pump (intracellular K+) in IMR90 cells at passage 27; assay: Intracellular K+ determination with Asante staining, replicative senescence; details: for Asante Mean intensity / Asante Mean intensity, group mean (Test details, Mean 2): Replicative Senescence cells; for Asante Mean intensity: individual replicate values; for Asante Mean intensity, group mean (Test details, Mean 2): mean of n=6
Procedure: (§1) Cells were cultured for control and senescent phenotype and then treated with the senolytics oleandrin, ouabain and periplocin at 10 nM for 72 h. Asante (Asante Potassium Green-2 AM, abcam ab142806) was added to the culture 30 min before fixation, following manufacturer instructions. DAPI staining was done before image acquisition on Nikon TI2 microscope (20x). Image analysis was performed using ImageJ 1.53k for setting intensity threshold and measuring mean intensity.

[3] = tested on: A549 cells treated with 100 μM etoposide; assay: Cell survival assay using crystal violet staining, TIS, senescent cells; details: for % Cell Survival: Etoposide-treated (senescent) cells, Control DMSO = 100, single replicates (SUP FIG 9E)
Procedure: (§2) Equal numbers of control and senescent cells were plated at high density on multiwell plates just before senolytic treatment addition. After treatment, cells were fixed on 0.5% glutaraldehyde (Sigma) and then dried at RT overnight. Then, wells were stained with crystal violet solution for 3 h, washed and dried. Once they were completely dry, the plates were scanned for records. Quantification was performed extracting the staining with 1% acetic acid and measuring the final solution by absorbance at 595 nm. […]
(§3) cells per condition is indicated. (d) Cell survival assay measuring the senolytic effect in lung cancer senescent cells. The panels show a representative crystal violet staining of tissue culture dishes of confluent A549 cells treated with 100 μM etoposide and control A549 cells, all treated with 10 nM oleandrin, ouabain and periplocin, and DMSO as vehicle control for 72 hours as indicated. (e) Graph representing the cell survival by quantification of the crystal violet staining of the experiment described in (d), as described in Methods. Data represented as individual datapoints, and bars and error bars representing the mean ± SEM of 14 independent experiments. Statistical analysis was performed using a one-way ANOVA (Tukey’s test) for multiple comparisons. […]
(§4) Scale bars represent 100 μm. ns = not significant, * = p < 0.05, ** = p < 0.01, *** = p < 0.001, **** = p < 0.0001. Source data are provided as a Source Data file.

[4] = tested on: IMR90 cells at passage 27 (replicative senescence); assay: Cell survival assay using crystal violet staining, replicative senescence; details: for % Cell Survival: Replicative Senescence (RS) cells, individual replicate values, Control DMSO = 100
From the text: IMR90 (CCL-186) human foetal lung fibroblasts and A549 (CCL-185) human lung adenocarcinoma cells were obtained from the American Type Culture Collection (ATCC, Manassas, VA). The cell lines were confirmed to be mycoplasma negative (Lonza MycoAlert, cat #LT07-118). IMR90 ER:RAS is a derivative of IMR90 cells expressing a switchable version of oncogenic H-Ras[84]. IMR90 ER:RAS and A549 cells were maintained in Dulbecco’s Modified Eagle Medium (DMEM, ThermoFisher) supplemented with foetal bovine serum (10%), L-glutamine (2 mM, ThermoFisher), and antibiotic-antimycotic solution (1%, ThermoFisher) and incubated under standard tissue culture conditions (37 °C and 5% CO2). For induction of the senescent phenotype, IMR90-ER:RAS cells were cultured in hydroxytamoxifen (4-OHT) (Sigma) added media at 100 nM final concentration. IMR90 were kept in culture for over 27 passages for replicative senescence. Cells were tested for mycoplasma on a regular basis.
(§5) Equal numbers of control and senescent cells were plated at high density on multiwell plates just before senolytic treatment addition. After treatment, cells were fixed on 0.5% glutaraldehyde (Sigma) and then dried at RT overnight. Then, wells were stained with crystal violet solution for 3 h, washed and dried. Once they were completely dry, the plates were scanned for records. Quantification was performed extracting the staining with 1% acetic acid and measuring the final solution by absorbance at 595 nm.

[5] = tested on: Na+/K+ ATPase pump (intracellular K+) in senescent IMR90 ER:RAS cells; assay: Intracellular K+ determination with Asante staining, OIS; details: for Asante Mean intensity / Mean (Asante Mean intensity, Tukey test details): FIG 4E, ER:RAS cells; for Asante Mean intensity: individual replicate values; for Mean (Asante Mean intensity, Tukey test details): mean of n=7
Procedure: as §1

control A549 cells = assay: Cell survival assay using crystal violet staining, TIS, control cells; details: for % Cell Survival: Control (no etoposide) cells, Control DMSO = 100, single replicates (SUP FIG 9E)
Procedure: as §2, §3, §4

[6] = tested on: senescent IMR90 ER:RAS cells; assay: Cell survival assay using crystal violet staining, OIS, senescent cells; parameters: % Cell Survival: concentration or dose not given beside the values; details: for % Cell Survival / Mean (cell survival, Tukey test details): FIG 4B, ER:RAS cells; for % Cell Survival: individual replicate values, ER:STOP DMSO = 100; for Mean (cell survival, Tukey test details): mean of n=12 as fraction of STOP DMSO = 1
Procedure: as §5

[7] = tested on: A549 cells treated with 100 μM etoposide; assay: Cell survival assay using crystal violet staining, TIS, senescent cells; details: fraction of Control DMSO = 1, n 15
[8] = tested on: control IMR90 ER:STOP cells; assay: Cell survival assay using crystal violet staining, OIS, control cells; parameters: % Cell Survival: concentration or dose not given beside the values; details: for % Cell Survival / Mean (cell survival, Tukey test details): FIG 4B, ER:STOP cells; for % Cell Survival: individual replicate values, ER:STOP DMSO = 100; for Mean (cell survival, Tukey test details): mean of n=12 as fraction of STOP DMSO = 1
Procedure: as §5

[9] = replicative senescence IMR90, 10 nM, 72 h

Structure (SMILES)	Caspase 3/7 activity time course (SUP FIG 9F) ([1]; 01:00:00 hours)	Caspase 3/7 activity time course (SUP FIG 9F exp not shown) ([1]; 01:00:00 hours)	Caspase 3/7 activity time course (SUP FIG 9F) ([1]; 05:00:00 hours)	Caspase 3/7 activity time course (SUP FIG 9F exp not shown) ([1]; 05:00:00 hours)	Caspase 3/7 activity time course (SUP FIG 9F) ([1]; 10:00:00 hours)	Caspase 3/7 activity time course (SUP FIG 9F exp not shown) ([1]; 10:00:00 hours)	Caspase 3/7 activity time course (SUP FIG 9F) ([1]; 15:00:00 hours)	Caspase 3/7 activity time course (SUP FIG 9F exp not shown) ([1]; 15:00:00 hours)	Caspase 3/7 activity time course (SUP FIG 9F) ([1]; 20:00:00 hours)	Caspase 3/7 activity time course (SUP FIG 9F exp not shown) ([1]; 20:00:00 hours)	Caspase 3/7 activity time course (SUP FIG 9F) ([1]; 1 day, 1:00:00)	Caspase 3/7 activity time course (SUP FIG 9F exp not shown) ([1]; 1 day, 1:00:00)	Caspase 3/7 activity time course (SUP FIG 9F) ([1]; 1 day, 6:00:00)	Caspase 3/7 activity time course (SUP FIG 9F exp not shown) ([1]; 1 day, 6:00:00)	Caspase 3/7 activity time course (SUP FIG 9F) ([1]; 1 day, 11:00:00)	Caspase 3/7 activity time course (SUP FIG 9F exp not shown) ([1]; 1 day, 11:00:00)	Casp3/7 activity (percentage of green fluorescent cells) [1]	Asante Mean intensity [2]	Asante Mean intensity, group mean (Test details, Mean 2) [2]	% Cell Survival [3]	other results
CO[C@H]1C[C@H](O[C@H]2CC[C@@]3(C)[C@H](CC[C@@H]4[C@@H]3CC[C@]3(C)[C@@H](C5=CC(=O)OC5)[C@@H](OC(C)=O)C[C@]43O)C2)O[C@@H](C)[C@@H]1O [Oleandrin, oleandrin]	0.9	0.75	1.1	1.25	2.3	3.9	3	7.9	4	13.8	7.8	16.55	11	18.55	13.5	19.65	92.2%	145.1 and 146.6 and 146 and 145.5 and 145.6	145.7	39.4% and 53.4% and 51.6% and 7.8% and 48.5% and 38.4% and 46.7% and 32.6% and 33.1% and 7.9% and 36.2% and 37.5% and 30.5% and 41.5%	K+ intracellular concentration, in words [2, 9]: significantly reduced; cellular content in senescent cultures (crystal violet), in words ([3]; A549 TIS with etoposide, 10 nM, 72 h): significant reduction in cellular content; Mean (cell survival, Tukey test details) ([4]; FIG 4C, RS cells, mean of n=12 as fraction of Young DMSO = 1): 0.4453; % Cell Survival ([4]; FIG 4C): 54.5% and 40.7% and 48% and 38.1% and 50.7% and 43.4% and 31.1% and 55% and 50.3% and 37.4% and 44.9% and 40.3%; cellular content in senescent cultures (crystal violet), in words [4, 9]: significant reduction in cellular content; Asante Mean intensity [5]: 67.9 and 72 and 68.8 and 66.6 and 77 and 61.9; Mean (Asante Mean intensity, Tukey test details) [5]: 68.87; K+ intracellular concentration, in words ([5]; OIS IMR90, 10 nM, 72 h): significantly reduced; cellular density in non-senescent control cultures, in words (control A549 cells; A549 control, 10 nM, 72 h): unchanged; % Cell Survival (control A549 cells): 99.6% and 145% and 133.8% and 119.3% and 135.9% and 111.6% and 113.5% and 93% and 97.3% and 116% and 109.5% and 116.3% and 95.4% and 109%; % Cell Survival [6]: 37.9% and 39.1% and 12.2% and 30.1% and 44.2% and 34.9% and 40.3% and 12.5% and 41% and 10.4% and 36% and 34.1%; Mean (cell survival, Tukey test details) [6]: 0.3106; cytotoxic activity / cellular content (crystal violet), in words ([6]; IMR90-ER:RAS cells undergoing OIS, 10 nM, 72 h): significant drop in cellular content; Cell survival, mean (Test details, Mean 2) [7]: 0.3827; % Cell Survival [8]: 89.1% and 95.2% and 73.8% and 89.4% and 107.6% and 89% and 95.8% and 77.8% and 100% and 72.7% and 87.5% and 82.7%; Mean (cell survival, Tukey test details) [8]: 0.8838
C[C@@H]1O[C@@H](O[C@H]2C[C@@H](O)[C@]3(CO)[C@H]4[C@H](O)C[C@]5(C)[C@@H](C6=CC(=O)OC6)CC[C@]5(O)[C@@H]4CC[C@]3(O)C2)[C@H](O)[C@H](O)[C@H]1O [Ouabain, ouabain, reference compound]	1.9	0.1	1.9	0.95	2.6	1.45	2.6	1.55	3	2.7	4	4.6	3.9	7.55	3.9	8.25	6.4%	151.8 and 154.5 and 152.7 and 153 and 150.8 and 153.1	152.7	83.2% and 99.9% and 99.3% and 62.7% and 92.6% and 102.5% and 88.1% and 123.1% and 123.9% and 68.2% and 105.6% and 95.4% and 114.5% and 91.7%	% Cell Survival ([4]; FIG 4C): 94.8% and 97.2% and 95.8% and 90.6% and 106.9% and 98.6% and 108.7% and 109.7% and 103.6% and 106.2% and 99.7%; Asante Mean intensity [5]: 73.6 and 91 and 73.5 and 72.9 and 82 and 66.9; Mean (Asante Mean intensity, Tukey test details) [5]: 76.21; % Cell Survival (control A549 cells): 87.7% and 109.8% and 97.7% and 103.7% and 127.7% and 98.4% and 119.9% and 122.1% and 126.3% and 124.6% and 125% and 96.4%; cytotoxic activity / cellular content (crystal violet), in words [6]: no cytotoxic activity; % Cell Survival [6]: 99% and 102.3% and 88.5% and 93% and 111.6% and 79.7% and 87.5% and 77.4% and 104.8% and 84.4% and 78.3% and 72%; Mean (cell survival, Tukey test details) [6]: 0.8988; Cell survival, mean (Test details, Mean 2) [7]: 0.9058; cytotoxic activity (crystal violet), in words [8]: no cytotoxic activity; % Cell Survival [8]: 100.7% and 91.1% and 79.5% and 88.8% and 108.2% and 92.7% and 95.3% and 93.9% and 97.9% and 80.1% and 99.8% and 95%; Mean (cell survival, Tukey test details) [8]: 0.9358
